This assay has as its system Mycobacterium tuberculosis. Kind of assay: Antimycobacterial activity against Mycobacterium tuberculosis H37Rv assessed as growth inhibition after 6 days by resazurin MIC assay. The format is functional, organism-based. The settings on record: for IC50 / IC90 / MIC: Mycobacterium tuberculosis, H37Rv, 144 h.

Here are results for 13 compounds from ChEMBL document CHEMBL3046118, “Coumarinyl pyrazole derivatives of INH: promising antimycobacterial agents” (Med Chem Res, 2013).

In brackets after ≈: the same amount, converted by molar mass.

For the compound `O=C(c1ccncc1)n1nc(-c2cccc([N+](=O)[O-])c2)cc1-c1cc2ccccc2oc1=O`, the “growth inhibition (GI)” value is 65.39%, the IC50 stood at 0.89 µg/mL (≈ 2.03 µM), the IC90 amounted to 1.67 µg/mL (≈ 3.81 µM) and the MIC came out at 1.25 µg/mL (≈ 2.85 µM).
For `COc1cccc(-c2cc(-c3cc4ccccc4oc3=O)n(C(=O)c3ccncc3)n2)c1`, the “growth inhibition (GI)” value came to 65.14%, the IC50 was 1.17 µg/mL (≈ 2.76 µM), the IC90 amounted to 1.29 µg/mL (≈ 3.05 µM) and the MIC came to 1.25 µg/mL (≈ 2.95 µM).
Turning to `O=C(c1ccncc1)n1nc(-c2ccc(Cl)cc2Cl)cc1-c1cc2ccccc2oc1=O`, the “growth inhibition (GI)” value was found to be 69.09%, the IC50 amounted to 0.74 µg/mL (≈ 1.6 µM), the IC90 was found to be 1.46 µg/mL (≈ 3.16 µM) and the MIC amounted to 1.25 µg/mL (≈ 2.7 µM).
Consider `O=C(c1ccncc1)n1nc(-c2ccccc2)cc1-c1cc2ccccc2oc1=O`, for which the “growth inhibition (GI)” value came out at 73.53%, the IC50 came to 1.92 µg/mL (≈ 4.88 µM), the IC90 is 2.26 µg/mL (≈ 5.74 µM) and the MIC came out at 2.5 µg/mL (≈ 6.35 µM).
Turning to `O=C(c1ccncc1)n1nc(-c2ccc(Cl)cc2)cc1-c1cc2ccccc2oc1=O`, the “growth inhibition (GI)” value stood at 75.39%, the IC50 amounted to 0.75 µg/mL (≈ 1.75 µM), the IC90 was 1.22 µg/mL (≈ 2.85 µM) and the MIC amounted to 1.25 µg/mL (≈ 2.92 µM).
In the case of `O=C(c1ccncc1)n1nc(-c2ccc(O)cc2)cc1-c1cc2ccccc2oc1=O`, the “growth inhibition (GI)” value was determined as 69.91%, the IC50 came out at 1.51 µg/mL (≈ 3.69 µM), the IC90 was determined as 2.85 µg/mL (≈ 6.96 µM) and the MIC is 2.5 µg/mL (≈ 6.11 µM).
`COc1ccc(-c2cc(-c3cc4ccccc4oc3=O)n(C(=O)c3ccncc3)n2)cc1`: the “growth inhibition (GI)” value was 66.67%, the IC50 stood at 1.21 µg/mL (≈ 2.86 µM), the IC90 was found to be 1.35 µg/mL (≈ 3.19 µM) and the MIC stood at 2.5 µg/mL (≈ 5.9 µM).
With `O=C(c1ccncc1)n1nc(-c2ccccc2[N+](=O)[O-])cc1-c1cc2ccccc2oc1=O`, the “growth inhibition (GI)” value turned out to be 67.83%, the IC50 turned out to be 1.9 µg/mL (≈ 4.33 µM), the IC90 came to 2.74 µg/mL (≈ 6.25 µM) and the MIC amounted to 2.5 µg/mL (≈ 5.7 µM).
For the compound `O=C(c1ccncc1)n1nc(-c2ccc(F)cc2)cc1-c1cc2ccccc2oc1=O`, the “growth inhibition (GI)” value came out at 80.09%, the IC50 was 0.41 µg/mL (≈ 0.997 µM), the IC90 was 0.73 µg/mL (≈ 1.77 µM) and the MIC is 0.625 µg/mL (≈ 1.52 µM).
`CN(C)c1ccc(-c2cc(-c3cc4ccccc4oc3=O)n(C(=O)c3ccncc3)n2)cc1`: the “growth inhibition (GI)” value was 73.82%, the IC50 was determined as 1.21 µg/mL (≈ 2.77 µM), the IC90 turned out to be 2.3 µg/mL (≈ 5.27 µM) and the MIC was 2.5 µg/mL (≈ 5.73 µM).
For the compound `NNC(=O)c1ccncc1` [ISONIAZID], the MIC worked out at 0.06 µg/mL (≈ 0.438 µM).
Take `Cc1ccc(-c2cc(-c3cc4ccccc4oc3=O)n(C(=O)c3ccncc3)n2)cc1`: the “growth inhibition (GI)” value is on record as 62.63%, the IC50 stood at 2.46 µg/mL (≈ 6.04 µM), the IC90 was found to be 2.69 µg/mL (≈ 6.6 µM) and the MIC came to 5 µg/mL (≈ 12.3 µM).
For the compound `CO[C@H]1/C=C/O[C@@]2(C)Oc3c(C)c(O)c4c(O)c(c(/C=N/N5CCN(C)CC5)c(O)c4c3C2=O)NC(=O)/C(C)=C\C=C\[C@H](C)[C@H](O)[C@@H](C)[C@@H](O)[C@@H](C)[C@H](OC(C)=O)[C@@H]1C` [RIFAMPIN], the MIC worked out at 0.003 µg/mL (≈ 0.00365 µM).
